Assay results: patent publication US20240197888A1, “SOS1 PROTEIN DEGRADERS, PHARMACEUTICAL COMPOSITIONS THEREOF, AND THEIR THERAPEUTIC APPLICATIONS” (BioTheryX, Inc., priority 2021, published 2024)

Tests used:
Assay type in all cases: cell-based
Lovo (G13D) cells = assay: Cell viability assay (CELLTITER-GLO), Lovo cells; settings: Homo sapiens, 72 h, Inhibition of cancerous cells, 3 days incubation, luminescence
Procedure: (§1) AsPC-1, H358, and SW48 cells were cultured in RPMI 1640 media supplemented with 10% fetal bovine serum, streptomycin, and penicillin. Lovo and SW480 cells were cultured in DMEM media supplemented with 10% fetal bovine serum, streptomycin, and penicillin. The cell lines were plated in their respective medium supplemented with 2.5% fetal bovine serum, streptomycin, and penicillin. All cell lines were plated in white walled 96-well plates at 2,000 cells/well or 384-well plates at 500 cells/well, except Lovo, which were plated at 4,000 or 1,000 cells/well, respectively. The cells were incubated in DMSO (control) or a compound for 3 days at 37° C. under 5% CO2. A CELLTITER-GLO® reagent ([…] was then added to each well. After a 10 min incubation with shaking, luminescence was measured using an ENVISION® multimode plate reader. IC50 values are summarized in Table 1.

SW480 (G12V) cells = assay: Cell viability assay (CELLTITER-GLO), SW480 cells; settings: Homo sapiens, 72 h, Inhibition of cancerous cells, 3 days incubation, luminescence
Procedure: as §1

H358 (G12C) cells = assay: Cell viability assay (CELLTITER-GLO), H358 cells; settings: Homo sapiens, NCI-H358, 72 h, Inhibition of cancerous cells, 3 days incubation, luminescence
Procedure: as §1

AsPC-1 (G12D) cells = assay: Cell viability assay (CELLTITER-GLO), AsPC-1 cells; settings: Homo sapiens, ASPC1, 72 h, Inhibition of cancerous cells, 3 days incubation, luminescence
Procedure: as §1

SW48 (wt) cells = assay: Cell viability assay (CELLTITER-GLO), SW48 cells; settings: Homo sapiens, 72 h, Inhibition of cancerous cells, 3 days incubation, luminescence
Procedure: as §1

Compound	IC50 (Lovo (G13D) cells)	IC50 (SW480 (G12V) cells)	IC50 (H358 (G12C) cells)	IC50 (AsPC-1 (G12D) cells)	IC50 (SW48 (wt) cells)
CNCc1ccccc1-c1csc([C@H](C)Nc2nc(C)nc3cc(OCCCCCCCN4CCN(C(C)=O)CC4)c(OC)cc23)c1 [Compound A65, (S)-1-(4-(7-((6-Methoxy-2-methyl-4-((1-(4-(2-((methylamino)methyl)phenyl)-thiophen-2-yl)ethyl)amino)quinazolin-7-yl)oxy)heptyl)piperazin-1-yl)ethan-1-one]	0.34 µM	0.38 µM	1.1 µM	0.68 µM	0.53 µM
CNCc1ccccc1-c1csc(C(C)Nc2nc(C)nc3cc(OCCCCCCCN4CCC(C(F)(F)F)CC4)c(OC)cc23)c1 (stereo in doubt) [Compound A66, (R)-6-Methoxy-2-methyl-N-(1-(4-(2-((methylamino)methyl)phenyl)thiophen-2-yl)ethyl)-7-((7-(4-(trifluoromethyl)piperidin-1-yl)heptyl)oxy)quinazolin-4-amine]	1.1 µM	0.55 µM	1.2 µM	2 µM	0.82 µM
CNCc1ccccc1-c1csc([C@@H](C)Nc2nc(C)nc3cc(OC)c(OC)cc23)c1 [reference compound]	0.69 µM	1 µM	1.7 µM	3.5 µM	1.3 µM
CNCc1ccccc1-c1csc([C@@H](C)Nc2nc(C)nc3cc(OCCC(C)(C)C)c(OC)cc23)c1 [Compound A62, (R)-7-(3,3-Dimethylbutoxy)-6-methoxy-2-methyl-N-(1-(4-(2-((methylamino)-methyl)phenyl)thiophen-2-yl)ethyl)quinazolin-4-amine]	0.5 µM	0.45 µM	1.3 µM	1.1 µM	0.53 µM
CNCc1ccccc1-c1csc([C@@H](C)Nc2nc(C)nc3cc(OCCCCCCCC4CCC(c5ccccc5)CC4)c(OC)cc23)c1 (stereo partly drawn) [Compound A60, (R)-6-Methoxy-2-methyl-N-(1-(4-(2-((methylamino)methyl)phenyl)thiophen-2-yl)ethyl)-7-((7-(4-phenylcyclohexyl)heptyl)oxy)quinazolin-4-amine]	0.24 µM	0.25 µM	0.53 µM	0.51 µM	0.17 µM
COc1cc2c(N[C@H](C)c3cccc(Br)c3)nc(C)nc2cc1OCCCCCCCN1CCC2(CC1)CCN(C(=O)OC(C)(C)C)CC2 [Compound A72, Tert-butyl (R)-9-(7-((4-((1-(3-bromophenyl)ethyl)amino)-6-methoxy-2-methyl-quinazolin-7-yl)oxy)heptyl)-3,9-diazaspiro[5.5]undecane-3-carboxylate]	0.39 µM	0.48 µM	1.1 µM	1 µM	0.64 µM
COc1cc2nc(C)nc(N[C@H](C)c3cccc(Br)c3)c2cc1OC [reference compound]	2.5 µM	3.4 µM	3.2 µM	5.1 µM	3.6 µM
CNCc1ccccc1-c1csc([C@H](C)Nc2nc(C)nc3cc(OCCCCCCC(C)(C)C)c(OC)cc23)c1 [Compound A59, (S)-7-((7,7-Dimethyloctyl)oxy)-6-methoxy-2-methyl-N-(1-(4-(2-((methylamino)-methyl)phenyl)thiophen-2-yl)ethyl)quinazolin-4-amine]	–	–	–	3.1 µM	–
CNCc1ccccc1-c1csc([C@@H](C)Nc2nc(C)nc3cc(OCCCCCCCN4CCN(C(C)=O)CC4)c(OC)cc23)c1 [Compound A64, (R)-1-(4-(7-((6-Methoxy-2-methyl-4-((1-(4-(2-((methylamino)methyl)phenyl)-thiophen-2-yl)ethyl)amino)quinazolin-7-yl)oxy)heptyl)piperazin-1-yl)ethan-1-one]	0.45 µM	0.46 µM	1.4 µM	1.1 µM	0.68 µM
CNCc1ccccc1-c1csc([C@@H](C)Nc2nc(C)nc3cc(OCCCCCCC(=O)N4CCCCC4)c(OC)cc23)c1 [Compound A68, (R)-7-((6-Methoxy-2-methyl-4-((1-(4-(2-((methylamino)methyl)phenyl)thiophen-2-yl)ethyl)amino)quinazolin-7-yl)oxy)-1-(piperidin-1-yl)heptan-1-one]	0.36 µM	0.36 µM	0.65 µM	1.5 µM	0.55 µM
CNCc1ccccc1-c1csc([C@H](C)Nc2nc(C)nc3cc(OCCCCCOC(=O)CC45CC6CC(CC(C6)C4)C5)c(OC)cc23)c1 [Compound A46, 5-((6-Methoxy-2-methyl-4-(((S)-1-(4-(2-((methylamino)methyl)phenyl)thiophen-2-yl)ethyl)amino)quinazolin-7-yl)oxy)pentyl 2-((3r,5r,7r)-adamantan-1-yl)acetate]	1.5 µM	1.2 µM	1.5 µM	–	1.1 µM
COc1cc2c(N[C@H](C)c3cccc(Br)c3)nc(C)nc2cc1OCCCCCCCc1ccncc1 [Compound A43, (R)—N-(1-(3-Bromophenyl)ethyl)-6-methoxy-2-methyl-7-((7-(pyridin-4-yl)heptyl)-oxy)quinazolin-4-amine]	2.2 µM	1.9 µM	5.4 µM	–	3.6 µM
CNCc1ccccc1-c1csc([C@H](C)Nc2nc(C)nc3cc(OCCOCCNC(=O)CC45CC6CC(CC(C6)C4)C5)c(OC)cc23)c1 [Compound A6, 2-((3r,5r,7r)-adamantan-1-yl)-N-(2-(2-((6-methoxy-2-methyl-4-(((S)-1-(4-(2-((methylamino)methyl)phenyl)thiophen-2-yl)ethyl)amino)quinazolin-7-yl)oxy)ethoxy)-ethyl)acetamide]	0.48 µM	0.76 µM	0.97 µM	–	1 µM
CNCc1ccccc1-c1csc([C@@H](C)Nc2nc(C)nc3cc(OCCOCCOC(=O)CC45CC6CC(CC(C6)C4)C5)c(OC)cc23)c1 [Compound A47, 2-(2-((6-Methoxy-2-methyl-4-(((R)-1-(4-(2-((methylamino)methyl)phenyl)-thiophen-2-yl)ethyl)amino)quinazolin-7-yl)oxy)ethoxy)ethyl 2-((3r,5r,7r)-adamantan-1-yl)acetate]	0.43 µM	0.58 µM	0.76 µM	–	0.64 µM
CNCc1ccccc1-c1csc([C@H](C)Nc2nc(C)nc3cc(OCCCCCCCN4CCCCC4)c(OC)cc23)c1 [Compound A3, (S)-6-methoxy-2-methyl-N-(1-(4-(2-((methylamino)methyl)phenyl)thiophen-2-yl)ethyl)-7-((7-(piperidin-1-yl)heptyl)oxy)quinazolin-4-amine]	0.34 µM	0.61 µM	0.61 µM	–	0.5 µM
COc1cc2c(N[C@H](C)c3cccc(Br)c3)nc(C)nc2cc1OCCCCCCCN1CCC(C(F)(F)F)CC1 [Compound A24, (R)—N-(1-(3-Bromophenyl)ethyl)-6-methoxy-2-methyl-7-((7-(4-(trifluoromethyl)-piperidin-1-yl)heptyl)oxy)quinazolin-4-amine]	0.46 µM	0.71 µM	1.2 µM	–	0.59 µM
CNCc1ccccc1-c1csc([C@@H](C)Nc2nc(C)nc3cc(OCCOCCNC(=O)CC45CC6CC(CC(C6)C4)C5)c(OC)cc23)c1 [Compound A5, 2-((3r,5r,7r)-adamantan-1-yl)-N-(2-(2-((6-methoxy-2-methyl-4-(((R)-1-(4-(2-((methylamino)methyl)phenyl)thiophen-2-yl)ethyl)amino)quinazolin-7-yl)oxy)ethoxy)ethyl)-acetamide]	0.45 µM	0.55 µM	0.91 µM	–	0.9 µM
COc1cc2c(N[C@H](C)c3cccc(Br)c3)nc(C)nc2cc1OCCCCCCCN1C(C)(C)CCCC1(C)C [Compound A74, (R)—N-(1-(3-Bromophenyl)ethyl)-6-methoxy-2-methyl-7-((7-(2,2,6,6-tetramethyl-piperidin-1-yl)heptyl)oxy)quinazolin-4-amine]	0.34 µM	0.42 µM	0.65 µM	–	0.56 µM
COc1cc2c(N[C@H](C)c3cccc(Br)c3)nc(C)nc2cc1OCCCCCCCC(=O)N[C@H]1CCC(=O)NC1=O [Compound A77, 8-((4-(((R)-1-(3-Bromophenyl)ethyl)amino)-6-methoxy-2-methylquinazolin-7-yl)oxy)-N—((S)-2,6-dioxopiperidin-3-yl)octanamide]	2.9 µM	3.9 µM	6.7 µM	–	5.1 µM
CNCc1ccccc1-c1csc([C@@H](C)Nc2nc(C)nc3cc(OCCCCCOC(=O)CC45CC6CC(CC(C6)C4)C5)c(OC)cc23)c1 [Compound A45, 5-((6-Methoxy-2-methyl-4-(((R)-1-(4-(2-((methylamino)methyl)phenyl)thiophen-2-yl)ethyl)amino)quinazolin-7-yl)oxy)pentyl 2-((3r,5r,7r)-adamantan-1-yl)acetate]	0.45 µM	0.57 µM	0.85 µM	–	1 µM
CNCc1ccccc1-c1csc([C@H](C)Nc2nc(C)nc3cc(OCCNC(=O)CC45CC6CC(CC(C6)C4)C5)c(OC)cc23)c1 [Compound A52, 2-((3r,5r,7r)-Adamantan-1-yl)-N-(2-((6-methoxy-2-methyl-4-(((S)-1-(4-(2-((methylamino)methyl)phenyl)thiophen-2-yl)ethyl)amino)quinazolin-7-yl)oxy)ethyl)acetamide]	0.43 µM	0.61 µM	1.2 µM	–	0.89 µM
